In paper PMC6097915 (ACS chemical biology, 2018):
Converted amounts (≈) assume the structure as drawn. Ends that are not written are not given here.

Tested on: WT MG1655 E. coli
Type: cell-based
Settings: 6-hr period, aerated EZRDM medium, 30°C, by OD, successive two-fold dilutions in 96 well plates

Molecule	MIC (minimum inhibitory concentration) [µM]
CC[C@H](C)[C@H](NC(=O)[C@H](CCCCN)NC(=O)[C@H](CCC(=O)O)NC(=O)[C@H](CCCCN)NC(=O)[C@H](CO)NC(=O)[C@H](CCCCN)NC(=O)[C@H](CCCNC(=N)N)NC(=O)[C@H](Cc1ccccc1)NC(=O)[C@H](Cc1ccccc1)NC(=O)[C@H](CC(=O)O)NC(=O)CNC(=O)[C@H](CC(C)C)NC(=O)[C@@H](N)CC(C)C)C(=O)NCC(=O)N[C@@H](CCCCN)C(=O)N[C@@H](CCC(=O)O)C(=O)N[C@@H](Cc1ccccc1)C(=O)N[C@@H](CCCCN)C(=O)N[C@@H](CCCNC(=N)N)C(=O)N[C@H](C(=O)N[C@H](C(=O)N[C@@H](CCC(N)=O)C(=O)N[C@@H](CCCNC(=N)N)C(=O)N[C@H](C(=O)N[C@@H](CCCCN)C(=O)N[C@@H](CC(=O)O)C(=O)N[C@@H](Cc1ccccc1)C(=O)N[C@@H](CC(C)C)C(=O)N[C@@H](CCCNC(=N)N)C(=O)N[C@@H](CC(N)=O)C(=O)N[C@@H](CC(C)C)C(=O)N[C@H](C(=O)N1CCC[C@H]1C(=O)N[C@@H](CCCNC(=N)N)C(=O)N[C@H](C(=O)N[C@@H](CCC(=O)O)C(=O)N[C@@H](CO)C(=O)O)[C@@H](C)O)C(C)C)[C@@H](C)CC)C(C)C)[C@@H](C)CC [LL-37]	4 (≈ 18 µg/mL)
KWKLFKKIEKVGQNIRDGII-KAGPAVAVVGQATQIAK-NH2 [Cecropin A]	0.9
KWKLFKKIGAVLKVL-NH2 [CM15]	5
